Literature values, collected in patent US20140213990A1, “COMPOSITIONS AND METHODS FOR TREATING SURFACE WOUNDS” (priority 2013, published 2014).

Columns and labels:
diabetic foot ulcers = details: at 20 weeks of treatment
[1] = Phase III clinical trials

Becaplermin
closure (healing) rate for diabetic foot ulcers (diabetic foot ulcers): 44% | patients in whom cancer appeared [1]: 80%
